Among the test systems are A498; ACHN; CAKI-1; HCC 2998; HCT-116; HCT-15; HT-29; IGROV-1; K562; KM12; MDA-MB-231; NCI-H23; NCI/ADR-RES; OVCAR-8; RXF 393; SF-268; SF-295; SK-MEL-5; SW-620.
Holding throughout (assay): inhibition of tumour cell growth, NCI panel, 48 h

Eight molecules from ChEMBL document CHEMBL1201862, “PubChem BioAssay data set” (2004) can be followed below.

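Growth conditions: 96-well plates. Treatment: test compound, 48 hours, 5 concentrations. Analysis: linear interpolation between bracketing concentrations; unreached endpoints set to highest concentration. GI50 marks 50% less growth.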 Activity calls are given as the source filed them. No stated cut-off is given here; in the data, active = GI50 up to about 1.1 µM and inactive = higher.

On to `C=CCNC1=C2C[C@@H](C)C[C@@H](OC)[C@H](OC(=O)CCCCN)[C@H](C)/C=C(\C)[C@@H](OC(N)=O)[C@H](OC)/C=C\C=C(/C)C(=O)NC(=CC1=O)C2=O`, for which the GI50 in the test with A498 is 12.9 µM (inactive); in the test with ACHN, 19.5 µM (inactive); in the test with CAKI-1 it was 18.5 µM (inactive); in the test with HCC 2998, 4.27 µM (inactive); in the test on HCT-116, 13.8 µM (inactive); with HCT-15, 18.7 µM. Besides, the GI50 in the test with HT-29 was 4.27 µM (inactive); in the test with IGROV-1, 13.6 µM (inactive); in the test on K562 it was 9.62 µM (inactive); in the test on KM12, 4.97 µM (inactive); in the test on MDA-MB-231, 14.2 µM (inactive); in the test with NCI-H23 it was 14.6 µM (inactive). The GI50 in the test on NCI/ADR-RES was > 100 µM (inactive); in the test with OVCAR-8, 19.4 µM (inactive); in the test on RXF 393, 14.8 µM (inactive); in the test on SF-268, 16.9 µM (inactive); in the test with SF-295, 15.7 µM (inactive); in the test with SK-MEL-5 it was 11.6 µM (inactive). In addition, the GI50 with SW-620 was 6.18 µM (inactive).

Take `C/N=c1\ss/c(=N\C(=S)N(C)C)n1C1CCCCC1`: the GI50 is > 31.6 µM (inactive) in the test with A498; > 31.6 µM (inactive) with ACHN; > 31.6 µM (inactive) in the test on CAKI-1; > 31.6 µM (inactive) in the test on HCC 2998; > 10 µM (inactive) in the test on HCT-116; greater than 31.6 µM with HCT-15. Besides, the GI50 in the test with HT-29, in the test on IGROV-1, with K562, in the test with KM12, with NCI-H23 and in the test on OVCAR-8 was > 31.6 µM (inactive) in each case. The GI50 in the test on RXF 393, in the test with SF-268, in the test on SF-295, in the test with SK-MEL-5 and with SW-620 was > 31.6 µM (inactive) each time.

Consider `O=C(O)CCC(NC(=O)c1ccc(Nc2nc3cc(C(F)(F)F)ccc3nc2-c2ccccc2)cc1)C(=O)O` (configuration not stated), for which the GI50 is > 100 µM (inactive) in the test with A498; 66.5 µM (inactive) in the test with HCC 2998; 71 µM (inactive) in the test with HCT-116; 60.3 µM in the test with HCT-15; 18.8 µM (inactive) in the test on HT-29; > 100 µM (inactive) in the test with IGROV-1. Besides, the GI50 is 34.4 µM (inactive) in the test on K562; 45.9 µM (inactive) with KM12; > 100 µM (inactive) in the test on NCI-H23; 62.1 µM (inactive) in the test on NCI/ADR-RES; > 100 µM (inactive) in the test with OVCAR-8; 26.5 µM (inactive) in the test with RXF 393. Besides, the GI50 in the test with SF-268 is > 100 µM (inactive); in the test with SF-295, 20.4 µM (inactive); with SK-MEL-5, > 100 µM (inactive); with SW-620, 68.1 µM (inactive).

For `NNC(=O)/C(NC(=O)c1ccccc1)=C(\N)c1ccc(Cl)cc1`, the GI50 was 80.5 µM (inactive) with A498; > 100 µM (inactive) with ACHN; > 100 µM (inactive) in the test on CAKI-1; > 100 µM (inactive) with HCC 2998; > 100 µM (inactive) with HCT-116; greater than 100 µM with HCT-15. For the same molecule, the GI50 with HT-29 was > 100 µM (inactive); in the test on IGROV-1 it was > 100 µM (inactive); in the test on K562, 89.3 µM (inactive); with KM12 it was > 100 µM (inactive); with NCI-H23, > 100 µM (inactive); in the test with OVCAR-8 it was > 100 µM (inactive). Further, the GI50 with RXF 393, with SF-268, in the test on SF-295, in the test with SK-MEL-5 and in the test with SW-620 was > 100 µM (inactive) throughout.

In the case of `COc1cc2c(cc1OC)C(C(c1ccccc1)c1ccccc1)N(C)CC2` (configuration not stated), the GI50 is > 100 µM (inactive) in the test with A498; 0.617 µM (active) in the test with CAKI-1; 26.3 µM (inactive) with HCC 2998; > 58.6 µM (inactive) in the test with HCT-116; greater than 100 µM in the test on HCT-15; 35.1 µM (inactive) with HT-29. The GI50 in the test on IGROV-1 was 70.6 µM (inactive); in the test on K562, 40.8 µM (inactive); in the test on KM12, > 100 µM (inactive); with NCI-H23, > 100 µM (inactive); in the test on NCI/ADR-RES, 68.9 µM (inactive); in the test with OVCAR-8, > 100 µM (inactive). Moreover, the GI50 with RXF 393 was 20 µM (inactive); in the test with SF-268 it was > 100 µM (inactive); with SF-295, > 75.9 µM (inactive); in the test on SK-MEL-5, 21 µM (inactive); in the test with SW-620, > 100 µM (inactive).

With `CC(C)(c1ccc(OC#N)cc1)c1ccc(OC#N)cc1`, the GI50 is > 100 µM (inactive) with A498; > 100 µM (inactive) in the test on ACHN; > 100 µM (inactive) in the test on CAKI-1; > 100 µM (inactive) in the test with HCC 2998; > 44.1 µM (inactive) in the test on HCT-116; 20.3 µM in the test on HCT-15. Also, the GI50 was > 100 µM (inactive) in the test with HT-29; > 100 µM (inactive) in the test on IGROV-1; > 70 µM (inactive) in the test with K562; > 100 µM (inactive) with KM12; > 100 µM (inactive) in the test on NCI-H23; > 100 µM (inactive) in the test on OVCAR-8. The GI50 was > 87.9 µM (inactive) in the test on RXF 393; > 66.5 µM (inactive) in the test on SF-268; > 100 µM (inactive) in the test with SF-295; > 100 µM (inactive) with SK-MEL-5; > 100 µM (inactive) in the test on SW-620.

Take `C[n+]1ccc(/C2=C3\C=CC(=N3)/C(c3cc[n+](C)cc3)=c3/cc/c([nH]3)=C(\c3cc[n+](C)cc3)C3=N/C(=C(/c4cc[n+](C)cc4)C4C=CC2N4)C=C3)cc1`: the GI50 is > 100 µM (inactive) in the test with A498; > 100 µM (inactive) in the test with ACHN; > 100 µM (inactive) in the test with CAKI-1; 84.7 µM (inactive) in the test with HCC 2998; > 81.1 µM (inactive) in the test with HCT-116; greater than 100 µM in the test on HCT-15. Besides, the GI50 in the test with HT-29 is 51.9 µM (inactive); in the test with IGROV-1 it was 71.4 µM (inactive); with K562, > 90.4 µM (inactive); in the test on KM12, 35.9 µM (inactive); in the test with MDA-MB-231, > 100 µM (inactive); in the test on NCI-H23, > 100 µM (inactive). The GI50 with NCI/ADR-RES is > 100 µM (inactive); in the test with OVCAR-8 it was > 100 µM (inactive); with RXF 393, > 91.4 µM (inactive); in the test on SF-268, > 100 µM (inactive); with SF-295 it was > 100 µM (inactive); with SK-MEL-5, 43 µM (inactive). The GI50 with SW-620 is > 100 µM (inactive).

Consider `O=C1C=C2SC3C[C@@]24CC1[N+]1=c2c4c(c(O)c4c2=C(C=N4)CC1)N3`, for which the GI50 is 5.31 µM (inactive) in the test on A498; 2.62 µM (inactive) in the test with CAKI-1; 2.74 µM (inactive) with HCC 2998; 1.81 µM (inactive) in the test on HCT-116; 3.4 µM in the test with HCT-15; 2.44 µM (inactive) in the test with IGROV-1. Besides, the GI50 in the test with K562 is 2.44 µM (inactive); in the test on KM12 it was 2.13 µM (inactive); in the test on NCI/ADR-RES, 6.68 µM (inactive); in the test on OVCAR-8 it was 2.03 µM (inactive); with RXF 393, 1.99 µM (inactive); with SF-268, 1.45 µM (inactive). Besides, the results for the GI50 in the test with SF-295, in the test on SK-MEL-5 and with SW-620 were 3.43 µM (inactive), 1.88 µM (inactive) and 2.62 µM (inactive), respectively.
